Data: patent US9352013B2, “Uses of bremelanotide in therapy for female sexual dysfunction” (Palatin Technologies, Inc., priority 2012, dated 2016)
Marks after values point to notes of the source that are not given here.

Assays:
[1] = Example 1: ambulatory blood pressure monitoring; format: in vivo, human; conditions: for Pulse: treatment group difference (from placebo) in mean change from single-blind placebo: in bpm (unit assumed); for DBP: treatment group difference (from placebo) in mean change from single-blind placebo / SBP: treatment group difference (from placebo) in mean change from single-blind placebo: in mmHg (unit assumed); for HR-BP Product: treatment group difference (from placebo) in mean change from single-blind placebo: in mmHg·bpm (unit assumed)
Procedure: Ambulatory blood pressure monitoring was conducted following both placebo and randomized treatment group in-clinic administrations. Three periods of ambulatory blood pressure monitoring were included, the first period was from before to 24 hours after a single, in-clinic dose of placebo (to establish a baseline); the second and third periods occurred from before to 24 hours after each of 2 single, in-clinic doses of double-blind treatment, administered within 14 days of each other. Blood samples for pharmacokinetic analysis were collected before and at 0.5, 1.0, and 2.0 hours after each in-clinic bremelanotide single-dose treatment (double-blind only), to permit analysis of concentration-response relationships.
Mean changes in blood pressure were characterized in all subjects based on sequential supervised dosing of single-blind subcutaneous placebo and two doses of randomized study drug. The primary analysis for mean changes was the difference between treatment groups in the change from single-blind placebo to randomized drug (Visit 2 vs. Visits 5/7). There were between 86 to 100 subjects in each dose group.
Although there were an increased number of outliers for maximal changes from baseline in systolic blood pressure in drug-treated patients, the duration of these events was quite limited. The interrogation interval during ambulatory blood pressure monitoring assessments of 15 minutes allowed definition of the maximal duration of such excursions. […] The clinical significance of such changes, if any, is small.

[2] = tested on: healthy adult female subjects; assay: Phase 1 dose escalation, subcutaneous: vaginal photoplethysmography (vaginal pulse amplitude); format: in vivo, human
Procedure: In a double-blind, placebo-controlled, single dose, dose escalation Phase 1 study to determine the maximum tolerated dose in healthy adult female subjects, doses of from 0.3 to 5.0 mg (0.3, 1.0, 3.0 and 5.0 mg) of bremelanotide were administered by subcutaneous injection. However, this study specifically excluded women with a diagnosis of FSD, and thus could not determine an effective dose for treatment of FSD. The study did employ a measure of pharmacodynamic effect, defined as an increase of sexual arousal response in the presence of visual sexual stimulation as measured by vaginal blood flow with vaginal photoplethysmography (using a Geer gauge device), which measures vaginal pulse amplitude.

[3] = Subcutaneous trial in males: vomiting; format: in vivo, human; conditions: males
Procedure: In a trial in males, 1 of 6 subjects at the 5-mg dose level, 1 of 6 subjects at the 7.5 mg dose level, and 3 of 6 subjects at the 10-mg dose level experienced vomiting that was mild or moderate in intensity and delayed 6 to 15 hours.

[4] = tested on: men diagnosed with erectile dysfunction; conditions: subcutaneous injection of either a 4 or 6 mg dose; cited from earlier work
[5] = 0.75 mg SC, interval 0-24 h, V5
[6] = 0.75 mg SC, interval 0-24 h, V7
[7] = 0.75 mg SC, interval 8-24 h, V5
[8] = 0.75 mg SC, interval 8-24 h, V7
[9] = 1.25 mg SC, interval 0-24 h, V5
[10] = 1.25 mg SC, interval 0-24 h, V7
[11] = 1.25 mg SC, interval 8-24 h, V5
[12] = 1.25 mg SC, interval 8-24 h, V7
[13] = 1.75 mg SC, interval 0-24 h, V5
[14] = 1.75 mg SC, interval 0-24 h, V7
[15] = 1.75 mg SC, interval 8-24 h, V5
[16] = 1.75 mg SC, interval 8-24 h, V7

## CCCC[C@H](NC(C)=O)C(=O)N[C@H]1CC(=O)NCCCC[C@@H](C(=O)O)NC(=O)[C@H](Cc2c[nH]c3ccccc23)NC(=O)[C@H](CCCNC(=N)N)NC(=O)[C@@H](Cc2ccccc2)NC(=O)[C@H](Cc2c[nH]cn2)NC1=O [bremelanotide, Ac-Nle-cyclo(-Asp-His-D-Phe-Arg-Trp-Lys)-OH]
[1]; 0.75 mg SC
  Systolic blood pressure shifts: ΔSBP >10 mmHg, Duration >30 minutes: 1
  Systolic blood pressure shifts: ΔSBP >15 mmHg, Duration >30 minutes: 0
[1]; 0.75 mg SC, interval 0-4 h, V5
  Pulse: treatment group difference (from placebo) in mean change from single-blind placebo: −5.2*
  DBP: treatment group difference (from placebo) in mean change from single-blind placebo: 1.5
  SBP: treatment group difference (from placebo) in mean change from single-blind placebo: 1.8
  HR-BP Product: treatment group difference (from placebo) in mean change from single-blind placebo: −492.8*
[1]; 0.75 mg SC, interval 0-4 h, V7
  Pulse: treatment group difference (from placebo) in mean change from single-blind placebo: −4.8*
  DBP: treatment group difference (from placebo) in mean change from single-blind placebo: 0.6
  SBP: treatment group difference (from placebo) in mean change from single-blind placebo: 1.1
  HR-BP Product: treatment group difference (from placebo) in mean change from single-blind placebo: −491.9*
[1]; [5]
  Pulse: treatment group difference (from placebo) in mean change from single-blind placebo: −2.2*
  DBP: treatment group difference (from placebo) in mean change from single-blind placebo: 1.1*
  SBP: treatment group difference (from placebo) in mean change from single-blind placebo: 1.1
  HR-BP Product: treatment group difference (from placebo) in mean change from single-blind placebo: −187.7
[1]; [6]
  Pulse: treatment group difference (from placebo) in mean change from single-blind placebo: −1.6
  DBP: treatment group difference (from placebo) in mean change from single-blind placebo: 1.3*
  SBP: treatment group difference (from placebo) in mean change from single-blind placebo: 1.5
  HR-BP Product: treatment group difference (from placebo) in mean change from single-blind placebo: −82.3
[1]; 0.75 mg SC, interval 4-8 h, V5
  Pulse: treatment group difference (from placebo) in mean change from single-blind placebo: −6.2*
  DBP: treatment group difference (from placebo) in mean change from single-blind placebo: 1.3
  SBP: treatment group difference (from placebo) in mean change from single-blind placebo: 0.9
  HR-BP Product: treatment group difference (from placebo) in mean change from single-blind placebo: −676.5*
[1]; 0.75 mg SC, interval 4-8 h, V7
  Pulse: treatment group difference (from placebo) in mean change from single-blind placebo: −5.5*
  DBP: treatment group difference (from placebo) in mean change from single-blind placebo: 1.7
  SBP: treatment group difference (from placebo) in mean change from single-blind placebo: 1.6
  HR-BP Product: treatment group difference (from placebo) in mean change from single-blind placebo: −503.3*
[1]; [7]
  Pulse: treatment group difference (from placebo) in mean change from single-blind placebo: −0.4
  DBP: treatment group difference (from placebo) in mean change from single-blind placebo: 1.0
  SBP: treatment group difference (from placebo) in mean change from single-blind placebo: 0.9
  HR-BP Product: treatment group difference (from placebo) in mean change from single-blind placebo: 5.2
[1]; [8]
  Pulse: treatment group difference (from placebo) in mean change from single-blind placebo: 0.1
  DBP: treatment group difference (from placebo) in mean change from single-blind placebo: 1.3*
  SBP: treatment group difference (from placebo) in mean change from single-blind placebo: 1.6
  HR-BP Product: treatment group difference (from placebo) in mean change from single-blind placebo: 114.9
[1]; 1.25 mg SC
  Systolic blood pressure shifts: ΔSBP >10 mmHg, Duration >30 minutes: 2
  Systolic blood pressure shifts: ΔSBP >15 mmHg, Duration >30 minutes: 0
[1]; 1.25 mg SC, interval 0-4 h, V5
  Pulse: treatment group difference (from placebo) in mean change from single-blind placebo: −5.2*
  DBP: treatment group difference (from placebo) in mean change from single-blind placebo: 3.0*
  SBP: treatment group difference (from placebo) in mean change from single-blind placebo: 2.4*
  HR-BP Product: treatment group difference (from placebo) in mean change from single-blind placebo: −436.4*
[1]; 1.25 mg SC, interval 0-4 h, V7
  Pulse: treatment group difference (from placebo) in mean change from single-blind placebo: −6.1*
  DBP: treatment group difference (from placebo) in mean change from single-blind placebo: 2.2*
  SBP: treatment group difference (from placebo) in mean change from single-blind placebo: 2.1*
  HR-BP Product: treatment group difference (from placebo) in mean change from single-blind placebo: −583.3*
[1]; [9]
  Pulse: treatment group difference (from placebo) in mean change from single-blind placebo: −2.9*
  DBP: treatment group difference (from placebo) in mean change from single-blind placebo: 1.9*
  SBP: treatment group difference (from placebo) in mean change from single-blind placebo: 1.1
  HR-BP Product: treatment group difference (from placebo) in mean change from single-blind placebo: −265.9
[1]; [10]
  Pulse: treatment group difference (from placebo) in mean change from single-blind placebo: −2.6*
  DBP: treatment group difference (from placebo) in mean change from single-blind placebo: 1.7*
  SBP: treatment group difference (from placebo) in mean change from single-blind placebo: 1.6*
  HR-BP Product: treatment group difference (from placebo) in mean change from single-blind placebo: −206.5
[1]; 1.25 mg SC, interval 4-8 h, V5
  Pulse: treatment group difference (from placebo) in mean change from single-blind placebo: −6.1*
  DBP: treatment group difference (from placebo) in mean change from single-blind placebo: 2.2*
  SBP: treatment group difference (from placebo) in mean change from single-blind placebo: 1.4
  HR-BP Product: treatment group difference (from placebo) in mean change from single-blind placebo: −621.0*
[1]; 1.25 mg SC, interval 4-8 h, V7
  Pulse: treatment group difference (from placebo) in mean change from single-blind placebo: −6.5*
  DBP: treatment group difference (from placebo) in mean change from single-blind placebo: 0.9
  SBP: treatment group difference (from placebo) in mean change from single-blind placebo: 1.3*
  HR-BP Product: treatment group difference (from placebo) in mean change from single-blind placebo: −669.7*
[1]; [11]
  Pulse: treatment group difference (from placebo) in mean change from single-blind placebo: −1.5
  DBP: treatment group difference (from placebo) in mean change from single-blind placebo: 1.4*
  SBP: treatment group difference (from placebo) in mean change from single-blind placebo: 0.7
  HR-BP Product: treatment group difference (from placebo) in mean change from single-blind placebo: −127.4
[1]; [12]
  Pulse: treatment group difference (from placebo) in mean change from single-blind placebo: −0.7
  DBP: treatment group difference (from placebo) in mean change from single-blind placebo: 1.7*
  SBP: treatment group difference (from placebo) in mean change from single-blind placebo: 1.5*
  HR-BP Product: treatment group difference (from placebo) in mean change from single-blind placebo: 4.2
[1]; 1.75 mg SC
  Systolic blood pressure shifts: ΔSBP >10 mmHg, Duration >30 minutes: 0
  Systolic blood pressure shifts: ΔSBP >15 mmHg, Duration >30 minutes: 0
[1]; 1.75 mg SC, interval 0-4 h, V5
  Pulse: treatment group difference (from placebo) in mean change from single-blind placebo: −4.6*
  DBP: treatment group difference (from placebo) in mean change from single-blind placebo: 3.2*
  SBP: treatment group difference (from placebo) in mean change from single-blind placebo: 3.1*
  HR-BP Product: treatment group difference (from placebo) in mean change from single-blind placebo: −305.9
[1]; 1.75 mg SC, interval 0-4 h, V7
  Pulse: treatment group difference (from placebo) in mean change from single-blind placebo: −4.7*
  DBP: treatment group difference (from placebo) in mean change from single-blind placebo: 2.6*
  SBP: treatment group difference (from placebo) in mean change from single-blind placebo: 2.5*
  HR-BP Product: treatment group difference (from placebo) in mean change from single-blind placebo: −375.4*
[1]; [13]
  Pulse: treatment group difference (from placebo) in mean change from single-blind placebo: −2.2*
  DBP: treatment group difference (from placebo) in mean change from single-blind placebo: 1.9*
  SBP: treatment group difference (from placebo) in mean change from single-blind placebo: 1.6
  HR-BP Product: treatment group difference (from placebo) in mean change from single-blind placebo: −139.1
[1]; [14]
  Pulse: treatment group difference (from placebo) in mean change from single-blind placebo: −2.2*
  DBP: treatment group difference (from placebo) in mean change from single-blind placebo: 1.8*
  SBP: treatment group difference (from placebo) in mean change from single-blind placebo: 1.3
  HR-BP Product: treatment group difference (from placebo) in mean change from single-blind placebo: −184.1
[1]; 1.75 mg SC, interval 4-8 h, V5
  Pulse: treatment group difference (from placebo) in mean change from single-blind placebo: −6.6*
  DBP: treatment group difference (from placebo) in mean change from single-blind placebo: 2.3*
  SBP: treatment group difference (from placebo) in mean change from single-blind placebo: 2.1
  HR-BP Product: treatment group difference (from placebo) in mean change from single-blind placebo: −608.1*
[1]; 1.75 mg SC, interval 4-8 h, V7
  Pulse: treatment group difference (from placebo) in mean change from single-blind placebo: −6.6*
  DBP: treatment group difference (from placebo) in mean change from single-blind placebo: 2.2*
  SBP: treatment group difference (from placebo) in mean change from single-blind placebo: 2.2
  HR-BP Product: treatment group difference (from placebo) in mean change from single-blind placebo: −624.5*
[1]; [15]
  Pulse: treatment group difference (from placebo) in mean change from single-blind placebo: −0.8
  DBP: treatment group difference (from placebo) in mean change from single-blind placebo: 1.4*
  SBP: treatment group difference (from placebo) in mean change from single-blind placebo: 0.9
  HR-BP Product: treatment group difference (from placebo) in mean change from single-blind placebo: −23.7
[1]; [16]
  Pulse: treatment group difference (from placebo) in mean change from single-blind placebo: −0.5
  DBP: treatment group difference (from placebo) in mean change from single-blind placebo: 1.4
  SBP: treatment group difference (from placebo) in mean change from single-blind placebo: 0.6
  HR-BP Product: treatment group difference (from placebo) in mean change from single-blind placebo: −31.3
[2]; 0.3 or 1.0 mg SC, compared to placebo or baseline
  Pharmacodynamic effect (vaginal pulse amplitude with visual sexual stimulation): no apparent pharmacodynamic effect
[2]; 3 and 5 mg SC
  Pharmacodynamic effect (vaginal pulse amplitude with visual sexual stimulation): statistically significant pharmacodynamic effect
[2]; normal female volunteers
  Subcutaneous dose at which a pharmacodynamics effect was seen: ≥ 3 mg
[3]; 7.5 mg dose level
  Subjects who experienced vomiting: 1 of 6
[3]; 5-mg dose level
  Subjects who experienced vomiting: 1 of 6
[3]; 10-mg dose level
  Subjects who experienced vomiting: 3 of 6
[4]
  Erectile response compared to placebo: statistically significant erectile response
